Patent US20240173440A1, “HIGH PURITY COPPER RADIOPHARMACEUTICAL COMPOSITIONS AND DIAGNOSTIC AND THERAPEUTIC USES THEREOF” (Nuclidium AG, priority 2022, published 2024)

Key:
hFAP = hFAP (Homo sapiens (Human), UniProt Q12884); assay: Saturation binding on isolated HEK-293.hFAP cell membranes; design: Bmax: unit not given here; conditions: 37° C.
Description: The cells were homogenized using Ultra-Turrax, and the homogenized suspension was centrifuged at 500×g for 10 min at 4° C. The supernatant was collected in centrifuge tubes (Beckman Coulter Inc., Brea, CA, USA). This procedure was then repeated 5 times. The collected supernatant was centrifuged in an ultra-centrifuge (Beckman) at 4° C. for 55 min at 49,000×g. Then, the pellet was re-suspended in 10 mM ice-cold HEPES buffer (pH 7.5), aliquoted, and stored at −80° C. The protein concentration of those membrane suspensions was determined by the Bradford method, BSA as the standard.
Each assay tube contained 170 μL of binding buffer (20 mM HEPES, pH 7.4, containing 4 mM μgCl2, 0.2% BSA, 20 μg/L bacitracin, 20 μg/L PMSF and 200,000 KIU/L aprotinin). The incubation was initiated by adding 30 μL of radioligand solution at 10 times the final concentration and 100 μL of cell membrane suspension to yield 10 μg of protein per well. For the determination of the non-specific binding, 140 μL of the above binding buffer was added along with 30 μL of FAPI-46 to obtain (0.1 mM). Bound fractions were plotted versus the corresponding radioligand concentration at equilibrium. The dissociation constant (KD) and maximal binding capacity (Bmax) values were calculated using GraphPad Software Inc., Prism 7, San Diego, CA, USA (Table 33 and FIG. 21).

[1] = system: HT-1080.hFAP and HT-1080.wt xenografts; assay: Quantitative biodistribution in HT-1080.hFAP and HT-1080.wt xenografted mice; format: in vivo; conditions: for Biodistribution HT-1080.wt: FAP-negative tumor; for Biodistribution HT-1080.hFAP: FAP-positive tumor
Description: The tumors were allowed to grow to an average volume of 100-200 mm3.
Biodistribution Studies: The xenografted mice were randomized (n=5 per group) and injected intravenously via the tail vein with the ^61Cu-labeled radioligands (100 μL, […], 0.8-1MBq). Mice were euthanized 1h and 4h pi. by CO2 asphyxiation. Organs of interest and blood were collected, rinsed of excess blood, blotted dry, weighed, and counted in a […]. The samples were counted against a suitably diluted aliquot of the injected solution as the standard and the results are expressed as the percentage of the injected activity per gram of tissue (0% I.A./g)+SD.

[2] = Remaining PET activity in the mouse body 4h p.i.; format: in vivo; conditions: mice
Description: PET/CT Imaging: Mice bearing FAP-positive and FAP-negative xenografts were injected intravenously with ^61Cu-labeled radioligands of the present disclosure or ^61Cu-NODAGA-FAPI-46 (100 μL/[…]/6-12 MBq). […] The mice were euthanized by CO2 at 4 hours p.i., and static PET scans were acquired for 30 min.
Remaining PET activity in the mouse body 4h p.i. prior to the 4h scan was determined (Table 36).

HT-1080.hFAP cells = assay: In vitro cellular uptake (cell surface and internalized fractions) in HT-1080.hFAP cells; format: cell-based, human
Description: (§1) The cellular uptake was studied in vitro using intact cells seeded in 6-well plates overnight. On the day of the experiment, the cells were washed and incubated with each of the exemplified [^61Cu]Cu-radiotracer at different time points, either alone or in the presence of a blocking agent to distinguish between specific and non-specific uptake. At each investigated time point, the medium containing the unbound (free) radiotracer was removed, followed by two washing steps with ice-cold phosphate-buffered saline. The cells were then treated 2×5 min with ice-cold glycine solution (0.05 M, pH 2.8) to detach the cell surface-bound radiotracer (acid released). Afterwards, the cells containing the internalized radiotracer were detached with 1 M NaOH at 37° C. and collected for measurement. The amount of specific cell surface-bound and internalized radiotracer is expressed as percentage of the total applied activity, after subtracting the non-specific values.
as §1, with “^61Cu-labeled conjugate” for “of the exemplified [^61Cu]Cu-radiotracer”
The cells were then preconditioned in 360 μL of assay medium (MEM medium without supplements) at 37° C. for 60 min. 40 μL of a 2 nM solution of ^61Cu-labeled radioligand was added and the cells were incubated at 37° C. The cellular uptake was interrupted at different time points (15 min, 1 hour and 4 hours), by washing twice with ice-cold PBS. Cell surface-bound radioligand was obtained by washing cells twice with ice-cold glycine buffer (pH 2.8), followed by a collection of the internalized fraction with 1 M NaOH. The activity in each fraction was measured in a γ-counter (Cobra II).

[3] = 1 h p.i., HT-1080.hFAP and HT-1080.wt xenografts
[4] = 4 h p.i., HT-1080.hFAP and HT-1080.wt xenografts
[5] = HT-1080.hFAP and HT-1080.wt xenografts

hFAP, sequence (Q12884 whole entry): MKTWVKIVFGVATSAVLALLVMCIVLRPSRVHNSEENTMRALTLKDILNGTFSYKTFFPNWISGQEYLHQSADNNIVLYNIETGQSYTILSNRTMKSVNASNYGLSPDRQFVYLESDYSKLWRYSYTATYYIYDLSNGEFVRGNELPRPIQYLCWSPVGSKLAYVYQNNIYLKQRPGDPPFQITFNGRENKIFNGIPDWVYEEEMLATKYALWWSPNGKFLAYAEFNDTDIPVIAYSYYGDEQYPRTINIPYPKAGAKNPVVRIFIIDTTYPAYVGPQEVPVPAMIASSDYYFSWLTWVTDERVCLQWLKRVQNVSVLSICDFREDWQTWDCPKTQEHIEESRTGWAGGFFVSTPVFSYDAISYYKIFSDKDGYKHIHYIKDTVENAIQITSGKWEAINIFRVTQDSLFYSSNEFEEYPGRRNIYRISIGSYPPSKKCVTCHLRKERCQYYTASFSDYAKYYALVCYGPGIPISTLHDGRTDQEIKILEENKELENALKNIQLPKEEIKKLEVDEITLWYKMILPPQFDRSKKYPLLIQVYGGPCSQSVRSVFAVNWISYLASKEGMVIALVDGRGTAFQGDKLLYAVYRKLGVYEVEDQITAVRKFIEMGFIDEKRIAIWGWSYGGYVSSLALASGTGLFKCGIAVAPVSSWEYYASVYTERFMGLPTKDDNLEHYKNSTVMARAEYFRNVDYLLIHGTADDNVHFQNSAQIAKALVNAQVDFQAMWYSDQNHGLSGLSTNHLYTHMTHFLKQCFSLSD

SMILES: N#C[C@@H]1CC(F)(F)CN1C(=O)CNC(=O)c1ccnc2ccc(NC(=O)CCC(=O)NCCNC(=O)CC[C@H](C(=O)O)N3CCN4CCN(CC3)CC(=O)[O][61Cu][O]C(=O)C4)cc12 [[^61Cu]Cu-NODAGA-F1]
- Bmax (hFAP): 8.6-9.2
- Biodistribution Spleen ([1]; 1 hour p.i.): 0.8 ± 0.1 % I.A./g
- Biodistribution Adrenal [1, 3]: 2.3 ± 0.5 % IA/g
- Biodistribution Blood [1, 3]: 2.3 ± 0.1 % IA/g
- Biodistribution Femur [1, 3]: 10.9 ± 1.1 % IA/g
- Biodistribution HT1080.hFAP (FAP-positive tumor) [1, 3]: 12.6 ± 1.5 % IA/g
- Biodistribution HT1080.wt (FAP-negative tumor) [1, 3]: 4.5 ± 0.6 % IA/g
- Biodistribution Heart [1, 3]: 1.2 ± 0.3 % IA/g
- Biodistribution Intestine [1, 3]: 1.7 ± 0.4 % IA/g
- Biodistribution Kidney [1, 3]: 2.4 ± 0.3 % IA/g
- Biodistribution Liver [1, 3]: 1.5 ± 0.0 % IA/g
- Biodistribution Lung [1, 3]: 1.8 ± 0.0 % IA/g
- Biodistribution Muscle [1, 3]: 2.6 ± 0.7 % IA/g
- Biodistribution Pancreas [1, 3]: 2.5 ± 0.3 % IA/g
- Biodistribution Spleen [1, 3]: 0.8 ± 0.1 % IA/g
- Biodistribution Stomach [1, 3]: 1.1 ± 0.2 % IA/g
- Biodistribution Heart ([1]; 4 hours p.i.): 0.7 ± 0.1 % I.A./g
- Biodistribution Liver ([1]; 4 hours p.i.): 1.0 ± 0.2 % I.A./g
- Biodistribution Lung ([1]; 4 hours p.i.): 0.8 ± 0.2 % I.A./g
- Biodistribution Spleen ([1]; 4 hours p.i.): 0.5 ± 0.1 % I.A./g
- Biodistribution Stomach ([1]; 4 hours p.i.): 0.7 ± 0.1 % I.A./g
- Biodistribution Adrenal [1, 4]: 1.4 ± 0.2 % IA/g
- Biodistribution Blood [1, 4]: 1.2 ± 0.3 % IA/g
- Biodistribution Femur [1, 4]: 4.2 ± 1.5 % IA/g
- Biodistribution HT1080.hFAP (FAP-positive tumor) [1, 4]: 7.1 ± 3.0 % IA/g
- Biodistribution HT1080.wt (FAP-negative tumor) [1, 4]: 2.1 ± 0.5 % IA/g
- Biodistribution Heart [1, 4]: 0.7 ± 0.1 % IA/g
- Biodistribution Intestine [1, 4]: 1.1 ± 0.4 % IA/g
- Biodistribution Kidney [1, 4]: 1.5 ± 0.5 % IA/g
- Biodistribution Liver [1, 4]: 1.0 ± 0.2 % IA/g
- Biodistribution Lung [1, 4]: 0.8 ± 0.2 % IA/g
- Biodistribution Muscle [1, 4]: 1.3 ± 0.1 % IA/g
- Biodistribution Pancreas [1, 4]: 1.4 ± 0.2 % IA/g
- Biodistribution Spleen [1, 4]: 0.5 ± 0.1 % IA/g
- Biodistribution Stomach [1, 4]: 0.7 ± 0.1 % IA/g
- Biodistribution HT-1080.wt ([1]; 1 hour p.i.): 4.5 ± 0.6 % I.A./g
- Biodistribution HT-1080.wt ([1]; 4 hours p.i.): 2.1 ± 0.5 % I.A./g
- Biodistribution HT-1080.hFAP ([1]; 1 hour p.i.): 12.6 ± 1.5 % I.A./g
- Biodistribution HT-1080.hFAP ([1]; 4 hours p.i.): 7.1 ± 3.0 % I.A./g
- accumulation in tumor and target-positive tissues [1, 5]: high accumulation in FAP-positive (HT-1080.hFAP) tumor and murine-FAP-positive tissues
- retention in the body (remaining PET activity) [2]: highest retention in the body

SMILES: N#C[C@@H]1CC(F)(F)CN1C(=O)CNC(=O)c1ccnc2ccc(NC(=O)CCC(=O)N3CCN(C(=O)CC[C@H](C(=O)O)N4CCN5CCN(CC4)CC(=O)[O][61Cu][O]C(=O)C5)CC3)cc12 [[^61Cu]Cu-NODAGA-F3]
- Cell surface fraction (HT-1080.hFAP cells; 15 min, HT-1080.hFAP cells, specific uptake (minus HT-1080.wt)): 0.9 ± 0.3 % of the applied activity
- Cell surface fraction (HT-1080.hFAP cells; Time Point 15 min, 0.2 nM): 0.9 ± 0.3 percentage of the total applied activity
- Bmax (hFAP): 7.3-8.1
- Biodistribution Heart ([1]; 1 hour p.i.): 0.7 ± 0.1 % I.A./g
- Biodistribution Intestine ([1]; 1 hour p.i.): 0.8 ± 0.2 % I.A./g
- Biodistribution Liver ([1]; 1 hour p.i.): 0.9 ± 0.1 % I.A./g
- Biodistribution Spleen ([1]; 1 hour p.i.): 0.5 ± 0.1 % I.A./g
- Biodistribution Stomach ([1]; 1 hour p.i.): 0.8 ± 0.1 % I.A./g
- Biodistribution Adrenal [1, 3]: 2.1 ± 0.6 % IA/g
- Biodistribution Blood [1, 3]: 1.7 ± 0.1 % IA/g
- Biodistribution Femur [1, 3]: 5.4 ± 1.2 % IA/g
- Biodistribution HT1080.hFAP (FAP-positive tumor) [1, 3]: 7.9 ± 0.9 % IA/g
- Biodistribution HT1080.wt (FAP-negative tumor) [1, 3]: 4.0 ± 2.2 % IA/g
- Biodistribution Heart [1, 3]: 0.7 ± 0.1 % IA/g
- Biodistribution Intestine [1, 3]: 0.8 ± 0.2 % IA/g
- Biodistribution Kidney [1, 3]: 1.6 ± 0.3 % IA/g
- Biodistribution Liver [1, 3]: 0.9 ± 0.1 % IA/g
- Biodistribution Lung [1, 3]: 1.2 ± 0.1 % IA/g
- Biodistribution Muscle [1, 3]: 2.1 ± 0.8 % IA/g
- Biodistribution Pancreas [1, 3]: 1.6 ± 0.2 % IA/g
- Biodistribution Spleen [1, 3]: 0.5 ± 0.1 % IA/g
- Biodistribution Stomach [1, 3]: 0.8 ± 0.1 % IA/g
- Biodistribution Blood ([1]; 4 hours p.i.): 0.9 ± 0.0 % I.A./g
- Biodistribution Heart ([1]; 4 hours p.i.): 0.5 ± 0.0 % I.A./g
- Biodistribution Intestine ([1]; 4 hours p.i.): 0.4 ± 0.1 % I.A./g
- Biodistribution Kidneys ([1]; 4 hours p.i.): 1.0 ± 0.2 % I.A./g
- Biodistribution Liver ([1]; 4 hours p.i.): 0.7 ± 0.1 % I.A./g
- Biodistribution Lung ([1]; 4 hours p.i.): 0.7 ± 0.1 % I.A./g
- Biodistribution Pancreas ([1]; 4 hours p.i.): 0.9 ± 0.0 % I.A./g
- Biodistribution Spleen ([1]; 4 hours p.i.): 0.3 ± 0.0 % I.A./g
- Biodistribution Stomach ([1]; 4 hours p.i.): 0.5 ± 0.0 % I.A./g
- Biodistribution Adrenal [1, 4]: 1.4 ± 0.3 % IA/g
- Biodistribution Blood [1, 4]: 0.9 ± 0.0 % IA/g
- Biodistribution Femur [1, 4]: 3.7 ± 0.3 % IA/g
- Biodistribution HT1080.hFAP (FAP-positive tumor) [1, 4]: 6.4 ± 2.0 % IA/g
- Biodistribution HT1080.wt (FAP-negative tumor) [1, 4]: 1.8 ± 0.3 % IA/g
- Biodistribution Heart [1, 4]: 0.5 ± 0.0 % IA/g
- Biodistribution Intestine [1, 4]: 0.4 ± 0.1 % IA/g
- Biodistribution Kidney [1, 4]: 1.0 ± 0.2 % IA/g
- Biodistribution Liver [1, 4]: 0.7 ± 0.1 % IA/g
- Biodistribution Lung [1, 4]: 0.7 ± 0.1 % IA/g
- Biodistribution Muscle [1, 4]: 1.1 ± 0.1 % IA/g
- Biodistribution Pancreas [1, 4]: 0.9 ± 0.0 % IA/g
- Biodistribution Spleen [1, 4]: 0.3 ± 0.0 % IA/g
- Biodistribution Stomach [1, 4]: 0.5 ± 0.0 % IA/g
- Biodistribution HT-1080.wt ([1]; 1 hour p.i.): 4.0 ± 2.2 % I.A./g
- Biodistribution HT-1080.wt ([1]; 4 hours p.i.): 1.8 ± 0.3 % I.A./g
- Biodistribution HT-1080.hFAP ([1]; 1 hour p.i.): 7.9 ± 0.9 % I.A./g
- Biodistribution HT-1080.hFAP ([1]; 4 hours p.i.): 6.4 ± 2.0 % I.A./g
- accumulation in tumor and target-positive tissues [1, 5]: high accumulation in FAP-positive (HT-1080.hFAP) tumor and murine-FAP-positive tissues
